Here are results for 14 compounds from ChEMBL document CHEMBL5465560, “Selectivity Literature for EUbOPEN Chemogenomic Library” (2024).

In experiment [1] the target is Receptor tyrosine-protein kinase erbB-4 (Homo sapiens, UniProt Q15303). The experiment can be described thus: Selectivity interaction (Upstate Kinase Profiler service (Millipore)) EUB0000056c ERBB4. The conditions noted are these: at 1 µM.
The subject of experiment [2] is Fibroblast growth factor receptor 1 (Homo sapiens), P11362 [V561M]. As to the kind of experiment: (§1) Selectivity interaction (ProQinase) EUB0000171b FGFR1.
In experiment [3] the target is Fibroblast growth factor receptor 1 (Homo sapiens, UniProt P11362). The description is as §1.
For experiment [4], the target named is Death-associated protein kinase 2 (Homo sapiens) (UniProt Q9UIK4). The experiment can be described thus: Selectivity interaction (Ambit KINOMEscan and KiNATiv profiling in Jurkat cells) EUB0000090b DAPK2. It is filed as cell-based. The conditions noted are these: at 1 µM.
Experiment [5] deals with LIM domain kinase 1 (Homo sapiens) (UniProt P53667). To be noted: at 10 µM.
The target in experiment [6] is Transient receptor potential cation channel subfamily M member 6 (Homo sapiens) (UniProt Q9BX84). The experiment can be described thus: Selectivity interaction (KinomeScan (DiscoverX)) EUB0000092b TRPM6. The conditions noted are these: at 10 µM.
Experiment [7] concerns the target Citron Rho-interacting kinase (Homo sapiens) (UniProt O14578). The experiment can be described thus: Selectivity interaction (KinomeScan (DiscoverX)) EUB0001049a CIT. The conditions noted are these: at 1 µM.
Experiment [8] addresses Serine/threonine-protein kinase WNK3 (Homo sapiens) (UniProt Q9BYP7). As to the kind of experiment: Selectivity interaction (KinomeScan (DiscoverX)) EUB0001049a WNK3. To be noted: at 1 µM.
The target of experiment [9] is T1, Calcium/calmodulin-dependent protein kinase type II subunit alpha (Homo sapiens, UniProt Q9UQM7). As to the kind of experiment: Selectivity interaction (Kinase screening (Upstate/Millipore)) EUB0000604a CAMK2A.
Experiment [10] concerns the target T2, Serine/threonine-protein kinase TBK1 (Homo sapiens) (UniProt Q9UHD2).
T2 sequence (whole entry): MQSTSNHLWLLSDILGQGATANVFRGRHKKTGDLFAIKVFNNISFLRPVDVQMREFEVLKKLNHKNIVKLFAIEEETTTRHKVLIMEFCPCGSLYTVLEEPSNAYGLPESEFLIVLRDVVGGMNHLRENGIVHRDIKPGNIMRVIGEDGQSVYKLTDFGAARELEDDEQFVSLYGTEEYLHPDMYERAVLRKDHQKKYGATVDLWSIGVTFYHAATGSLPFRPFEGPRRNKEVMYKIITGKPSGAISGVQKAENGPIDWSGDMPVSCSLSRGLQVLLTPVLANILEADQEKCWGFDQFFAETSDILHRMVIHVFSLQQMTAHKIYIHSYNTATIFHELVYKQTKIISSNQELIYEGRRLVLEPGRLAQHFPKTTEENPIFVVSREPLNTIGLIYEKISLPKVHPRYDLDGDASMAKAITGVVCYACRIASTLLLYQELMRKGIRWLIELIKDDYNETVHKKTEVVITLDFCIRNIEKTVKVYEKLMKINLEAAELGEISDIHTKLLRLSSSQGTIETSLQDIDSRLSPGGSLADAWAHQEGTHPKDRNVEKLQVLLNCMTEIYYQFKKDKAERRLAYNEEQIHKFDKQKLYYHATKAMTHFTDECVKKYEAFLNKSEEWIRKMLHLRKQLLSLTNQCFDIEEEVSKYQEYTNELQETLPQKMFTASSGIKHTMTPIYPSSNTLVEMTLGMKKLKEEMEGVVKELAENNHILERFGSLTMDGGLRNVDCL
The experiment can be described thus: Selectivity interaction (Kinase screening (Nanosyn)) EUB0000604a TBK1.

Experiment [11] addresses Serine/threonine-protein kinase PAK 6 (Homo sapiens) (UniProt Q9NQU5). As to the kind of experiment: Selectivity interaction (KinomeScan (DiscoverX)) EUB0000045b PAK6.
Experiment [12] has as its target Macrophage colony-stimulating factor 1 receptor (Homo sapiens) (UniProt P07333). The experiment can be described thus: Selectivity interaction (Kinase panel (Invitrogen)) EUB0000639a CSF1R. The conditions noted are these: at 200 nM.
Experiment [13] concerns the target T3, Glycogen synthase kinase-3 alpha (Homo sapiens, UniProt P49840). The experiment can be described thus: Selectivity interaction (ActivX KiNativ screen (kinase selectivity in THP-1 cell lysates)) EUB0000639a GSK3A. The conditions noted are these: lysate. It is filed as subcellular.
The target in experiment [14] is Mitogen-activated protein kinase 10 (Homo sapiens, UniProt P53779). The experiment can be described thus: Selectivity interaction (Kinase panel (Invitrogen)) EUB0000639a MAPK10. To be noted: at 200 nM.
Experiment [15] addresses MAP kinase-interacting serine/threonine-protein kinase 1 (Homo sapiens) (UniProt Q9BUB5). The experiment can be described thus: Selectivity interaction (Kinase panel (Invitrogen)) EUB0000639a MKNK1. To be noted: at 200 nM.
Experiment [16] has as its target Phosphatidylinositol 4,5-bisphosphate 3-kinase catalytic subunit alpha isoform (Homo sapiens) (UniProt P42336). As to the kind of experiment: Selectivity interaction (Kinase panel (Invitrogen)) EUB0000639a PIK3CA. To be noted: at 200 nM.
A further experiment addresses Activated CDC42 kinase 1 (Homo sapiens, UniProt Q07912). As to the kind of experiment: Selectivity interaction (Kinase panel (Invitrogen)) EUB0000639a TNK2. To be noted: at 200 nM.
Experiment [17] has as its target Serine/threonine-protein kinase WNK1 (Homo sapiens) (UniProt Q9H4A3). The experiment can be described thus: Selectivity interaction (KinomeScan (DiscoverX)) EUB0000229b WNK1. To be noted: at 10 µM.
Experiment [18] concerns the target MAP kinase-activated protein kinase 2 (Homo sapiens, UniProt P49137). As to the kind of experiment: Selectivity interaction (Kinase panel (33PanQinase(R) Activity Assay)) EUB0000877a MAPKAPK2.
In experiment [19] the target is T1, Calcium/calmodulin-dependent protein kinase type II subunit alpha. As to the kind of experiment: Selectivity interaction (KinomeScan (DiscoverX)) EUB0001619a CAMK2A. The conditions noted are these: at 1 µM.
For experiment [20], the target named is Cyclin-dependent kinase 5 (Homo sapiens, UniProt Q00535). The experiment can be described thus: Selectivity interaction (ActivX KiNativ screen (ex vivo kinase selectivity in human PBMCs)) EUB0001619a CDK5. It is filed as cell-based. The conditions noted are these: PBMC, at 1 µM.
The target of experiment [21] is T3, Glycogen synthase kinase-3 alpha. The experiment can be described thus: Selectivity interaction (ActivX KiNativ screen (ex vivo kinase selectivity in human PBMCs)) EUB0001619a GSK3A. The format is cell-based. To be noted: PBMC, at 1 µM.
Experiment [22] deals with STE20-like serine/threonine-protein kinase (Homo sapiens, UniProt Q9H2G2). As to the kind of experiment: Selectivity interaction (KinomeScan (DiscoverX)) EUB0001619a SLK. To be noted: at 1 µM.
Experiment [23] deals with Serine/threonine-protein kinase 24 (Homo sapiens) (UniProt Q9Y6E0). The experiment can be described thus: Selectivity interaction (Kinase panel (KiNativ target engagement assay in Jurkat cells)) EUB0001635a STK24. The format is cell-based. The conditions noted are these: Selectivity number of off-targets 0.0, Selectivity number of targets 233.0, Source Knowledge https://www.sciencedirect.com/science/article/pii/S2451945619300674?via%3Dihub, at 1 µM.

The target in experiment [24] is Phosphatidylinositol 3-kinase catalytic subunit type 3 (Homo sapiens, UniProt Q8NEB9). The experiment can be described thus: Selectivity interaction (Kinase panel (KiNativ target engagement assay in Jurkat cells)) EUB0001635a PIK3C3. The conditions noted are these: Selectivity number of off-targets 0.0, Selectivity number of targets 233.0, Source Knowledge https://www.sciencedirect.com/science/article/pii/S2451945619300674?via%3Dihub, at 1 µM. The format is cell-based.

Experiment [25] relates to Proto-oncogene tyrosine-protein kinase receptor Ret (Homo sapiens), P07949 [V804L]. As to the kind of experiment: (§2) Selectivity interaction (KinomeScan (DiscoverX)) EUB0000618a RET. The conditions noted are these: at 10 µM.
Experiment [26] relates to Proto-oncogene tyrosine-protein kinase receptor Ret (Homo sapiens), P07949 [V804M]. The experiment is described as §2. The conditions noted are these: at 10 µM.
The target in experiment [27] is Proto-oncogene tyrosine-protein kinase receptor Ret (Homo sapiens, UniProt P07949). Described as §2. The conditions noted are these: at 10 µM.
Sequence of Proto-oncogene tyrosine-protein kinase receptor Ret (P07949 whole entry): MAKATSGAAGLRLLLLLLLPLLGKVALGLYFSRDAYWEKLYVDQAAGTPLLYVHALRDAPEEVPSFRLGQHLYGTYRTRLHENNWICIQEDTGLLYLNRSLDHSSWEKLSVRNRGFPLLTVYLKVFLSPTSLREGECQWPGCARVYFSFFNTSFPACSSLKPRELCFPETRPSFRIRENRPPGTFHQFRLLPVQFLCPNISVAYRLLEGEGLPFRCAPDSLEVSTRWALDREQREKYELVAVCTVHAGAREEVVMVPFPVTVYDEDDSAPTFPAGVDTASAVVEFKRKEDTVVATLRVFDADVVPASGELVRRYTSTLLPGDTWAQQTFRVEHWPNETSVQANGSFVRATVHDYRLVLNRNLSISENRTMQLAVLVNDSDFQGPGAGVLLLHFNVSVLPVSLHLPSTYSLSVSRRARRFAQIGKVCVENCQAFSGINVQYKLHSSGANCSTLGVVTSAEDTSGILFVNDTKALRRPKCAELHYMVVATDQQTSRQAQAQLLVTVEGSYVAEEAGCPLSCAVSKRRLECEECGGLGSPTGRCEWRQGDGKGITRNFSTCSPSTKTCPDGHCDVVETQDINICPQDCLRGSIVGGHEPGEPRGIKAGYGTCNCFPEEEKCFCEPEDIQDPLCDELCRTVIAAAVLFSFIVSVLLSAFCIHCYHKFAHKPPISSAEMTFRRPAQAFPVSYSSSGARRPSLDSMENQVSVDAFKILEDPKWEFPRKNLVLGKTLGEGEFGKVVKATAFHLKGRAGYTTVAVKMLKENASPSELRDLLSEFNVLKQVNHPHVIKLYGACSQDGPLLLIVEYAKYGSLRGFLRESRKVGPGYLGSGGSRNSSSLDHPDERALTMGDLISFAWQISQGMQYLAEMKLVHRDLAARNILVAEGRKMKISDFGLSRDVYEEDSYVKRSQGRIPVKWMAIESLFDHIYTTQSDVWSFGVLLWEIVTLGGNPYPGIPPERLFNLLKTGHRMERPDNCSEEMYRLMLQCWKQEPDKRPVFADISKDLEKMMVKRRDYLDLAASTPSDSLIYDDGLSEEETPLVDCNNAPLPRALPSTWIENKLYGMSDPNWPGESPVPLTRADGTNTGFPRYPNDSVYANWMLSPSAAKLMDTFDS

T3 sequence (P49840 2-483 limits assumed): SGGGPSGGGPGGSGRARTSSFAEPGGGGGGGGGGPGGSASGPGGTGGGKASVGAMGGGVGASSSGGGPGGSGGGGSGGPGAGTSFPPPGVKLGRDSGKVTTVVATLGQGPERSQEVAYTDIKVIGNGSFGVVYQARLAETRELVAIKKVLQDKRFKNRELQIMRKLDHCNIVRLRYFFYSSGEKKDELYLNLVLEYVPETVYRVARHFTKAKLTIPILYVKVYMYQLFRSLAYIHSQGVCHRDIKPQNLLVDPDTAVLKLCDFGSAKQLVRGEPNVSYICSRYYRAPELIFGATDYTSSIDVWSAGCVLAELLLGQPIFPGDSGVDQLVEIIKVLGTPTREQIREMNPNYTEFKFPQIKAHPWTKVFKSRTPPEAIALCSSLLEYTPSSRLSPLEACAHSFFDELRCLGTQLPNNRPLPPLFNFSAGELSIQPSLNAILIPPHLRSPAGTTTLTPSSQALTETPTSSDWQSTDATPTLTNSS
Sequence of Fibroblast growth factor receptor 1 (Homo sapiens), P11362 [V561M] (P11362 whole entry V561M): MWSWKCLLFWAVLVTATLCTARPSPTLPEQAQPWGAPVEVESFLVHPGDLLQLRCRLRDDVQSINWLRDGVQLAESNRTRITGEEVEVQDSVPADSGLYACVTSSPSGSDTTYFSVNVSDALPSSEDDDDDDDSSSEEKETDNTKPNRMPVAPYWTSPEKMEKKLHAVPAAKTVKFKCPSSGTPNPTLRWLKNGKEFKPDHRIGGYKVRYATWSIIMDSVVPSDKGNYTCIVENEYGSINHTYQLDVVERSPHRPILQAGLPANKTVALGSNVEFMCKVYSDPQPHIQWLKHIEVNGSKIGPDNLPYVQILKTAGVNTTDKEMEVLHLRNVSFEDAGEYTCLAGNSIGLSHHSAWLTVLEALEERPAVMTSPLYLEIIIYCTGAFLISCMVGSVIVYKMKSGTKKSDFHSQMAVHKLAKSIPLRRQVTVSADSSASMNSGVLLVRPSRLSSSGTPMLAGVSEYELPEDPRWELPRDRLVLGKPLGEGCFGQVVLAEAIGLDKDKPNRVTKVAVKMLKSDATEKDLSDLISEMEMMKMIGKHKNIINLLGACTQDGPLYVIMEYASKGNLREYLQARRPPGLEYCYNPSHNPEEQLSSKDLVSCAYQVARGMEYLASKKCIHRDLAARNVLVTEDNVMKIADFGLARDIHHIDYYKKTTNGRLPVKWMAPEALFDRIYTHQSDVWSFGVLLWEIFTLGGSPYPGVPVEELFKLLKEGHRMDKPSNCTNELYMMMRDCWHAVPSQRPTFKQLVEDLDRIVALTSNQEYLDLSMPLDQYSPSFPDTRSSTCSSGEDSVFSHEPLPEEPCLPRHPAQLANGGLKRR
Sequence of Serine/threonine-protein kinase PAK 6 (Homo sapiens) (Q9NQU5 whole entry, looked up): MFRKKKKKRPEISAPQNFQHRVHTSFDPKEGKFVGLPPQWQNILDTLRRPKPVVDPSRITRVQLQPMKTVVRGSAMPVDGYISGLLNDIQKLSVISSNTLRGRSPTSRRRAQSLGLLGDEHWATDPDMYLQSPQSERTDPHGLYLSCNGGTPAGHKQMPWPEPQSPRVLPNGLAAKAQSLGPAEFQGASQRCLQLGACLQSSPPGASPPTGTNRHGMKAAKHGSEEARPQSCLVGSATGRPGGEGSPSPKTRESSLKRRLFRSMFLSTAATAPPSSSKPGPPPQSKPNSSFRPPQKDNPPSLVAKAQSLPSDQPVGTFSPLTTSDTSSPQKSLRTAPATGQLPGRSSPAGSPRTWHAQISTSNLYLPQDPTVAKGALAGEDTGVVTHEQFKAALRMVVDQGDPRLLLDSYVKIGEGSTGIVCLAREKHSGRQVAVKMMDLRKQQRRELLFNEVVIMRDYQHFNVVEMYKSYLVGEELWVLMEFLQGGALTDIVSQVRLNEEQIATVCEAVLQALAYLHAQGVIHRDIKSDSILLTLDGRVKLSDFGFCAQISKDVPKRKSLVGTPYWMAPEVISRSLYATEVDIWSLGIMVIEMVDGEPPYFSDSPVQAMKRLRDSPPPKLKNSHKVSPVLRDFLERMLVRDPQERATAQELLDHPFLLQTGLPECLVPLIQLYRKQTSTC
Sequence of Fibroblast growth factor receptor 1 (P11362 22-822 limits assumed): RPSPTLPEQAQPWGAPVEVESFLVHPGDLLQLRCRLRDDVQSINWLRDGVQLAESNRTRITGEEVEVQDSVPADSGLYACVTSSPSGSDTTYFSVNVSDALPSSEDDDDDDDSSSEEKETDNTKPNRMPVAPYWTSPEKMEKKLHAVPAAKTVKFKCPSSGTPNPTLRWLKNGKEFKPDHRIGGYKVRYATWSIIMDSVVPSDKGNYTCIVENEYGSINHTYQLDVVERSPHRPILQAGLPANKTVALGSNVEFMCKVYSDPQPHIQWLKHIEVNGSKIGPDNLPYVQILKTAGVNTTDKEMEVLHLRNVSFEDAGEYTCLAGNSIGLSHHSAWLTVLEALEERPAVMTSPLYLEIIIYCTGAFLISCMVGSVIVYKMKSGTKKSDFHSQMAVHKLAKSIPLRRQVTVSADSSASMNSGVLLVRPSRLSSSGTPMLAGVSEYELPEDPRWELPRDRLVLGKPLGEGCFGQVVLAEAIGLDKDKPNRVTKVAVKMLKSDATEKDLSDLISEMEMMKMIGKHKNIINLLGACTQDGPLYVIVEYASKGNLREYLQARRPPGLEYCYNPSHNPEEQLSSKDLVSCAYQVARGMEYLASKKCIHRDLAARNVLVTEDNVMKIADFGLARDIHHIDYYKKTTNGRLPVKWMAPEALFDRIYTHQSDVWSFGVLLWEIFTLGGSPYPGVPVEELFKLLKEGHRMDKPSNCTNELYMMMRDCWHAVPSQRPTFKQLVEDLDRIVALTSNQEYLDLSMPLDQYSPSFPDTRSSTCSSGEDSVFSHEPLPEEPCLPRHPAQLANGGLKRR
T1 sequence (Q9UQM7 whole entry): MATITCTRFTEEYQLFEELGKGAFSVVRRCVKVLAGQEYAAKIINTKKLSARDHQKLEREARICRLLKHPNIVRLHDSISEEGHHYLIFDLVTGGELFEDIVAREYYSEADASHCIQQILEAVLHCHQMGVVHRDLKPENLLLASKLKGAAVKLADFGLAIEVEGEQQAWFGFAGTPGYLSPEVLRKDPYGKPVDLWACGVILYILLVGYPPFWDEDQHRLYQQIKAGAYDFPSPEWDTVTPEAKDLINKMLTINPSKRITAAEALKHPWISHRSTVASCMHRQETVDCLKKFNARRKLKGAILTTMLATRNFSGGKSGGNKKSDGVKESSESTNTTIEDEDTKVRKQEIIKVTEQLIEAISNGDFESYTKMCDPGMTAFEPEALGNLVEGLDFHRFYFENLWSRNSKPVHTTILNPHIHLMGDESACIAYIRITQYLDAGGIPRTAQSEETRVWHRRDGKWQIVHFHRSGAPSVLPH
Sequence of Proto-oncogene tyrosine-protein kinase receptor Ret (Homo sapiens), P07949 [V804L] (P07949 whole entry V804L): as the sequence (P07949 whole entry) above, with V804L counted along it
Sequence of Death-associated protein kinase 2 (Homo sapiens) (Q9UIK4 whole entry, looked up, the tested form may be a part): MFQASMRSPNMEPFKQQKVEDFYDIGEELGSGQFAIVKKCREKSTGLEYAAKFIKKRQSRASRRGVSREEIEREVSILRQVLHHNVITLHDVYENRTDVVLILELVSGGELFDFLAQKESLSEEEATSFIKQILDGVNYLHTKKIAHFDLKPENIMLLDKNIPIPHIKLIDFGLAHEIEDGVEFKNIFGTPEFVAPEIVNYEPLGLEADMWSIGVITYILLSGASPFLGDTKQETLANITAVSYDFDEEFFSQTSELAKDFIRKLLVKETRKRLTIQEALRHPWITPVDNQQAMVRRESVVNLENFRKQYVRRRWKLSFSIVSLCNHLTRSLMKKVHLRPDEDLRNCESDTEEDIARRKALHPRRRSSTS
Sequence of Proto-oncogene tyrosine-protein kinase receptor Ret (Homo sapiens), P07949 [V804M] (P07949 whole entry V804M): as the sequence (P07949 whole entry) above, with V804M counted along it

Regarding `Cc1ccc(-c2ccc3c(ccc4sc5c(c43)NC[C@@H](C)NC5=O)n2)cn1`, the % of inhibition in experiment [1] stood at 12%.
Take `C=CC(=O)Nc1cccc(C(=O)Nc2ccc(Nc3cc(-c4[nH]c(SC)nc4C)ccn3)cc2)c1`: the % of control in experiment [2] (at 1 µM) was 99%; in experiment [2] (at 5 µM), 65%; in [3] (at 1 µM) it was 105%; in [3] (at 5 µM) it was 87%.
Compound `CN(C)C/C=C/C(=O)Nc1ccc(C(=O)N2CCCC(Nc3ncc(Cl)c(-c4c[nH]c5ccccc45)n3)C2)cc1` (stereo not given) came in with a % of control in experiment [4] of 98%.
In the case of `CCN(CC)CCCCNc1ncc2cc(-c3cc(OC)cc(OC)c3)c(NC(=O)NC(C)(C)C)nc2n1`, the % of control in experiment [5] stood at 100%.
For the compound `CCC(=O)N1CCN(c2ccc(-n3c(=O)ccc4cnc5ccc(-c6cnc7ccccc7c6)cc5c43)cc2C(F)(F)F)CC1`, the % of control in experiment [6] was found to be 100%.
Consider `COc1cc(Nc2nc(C)cc(-c3cnn4nc(OC)ccc34)n2)cc(C(F)(F)F)c1`, for which the values for the % of control in experiment [7] and in experiment [8] were 100% and 81%, respectively.
As for `Cc1cnc(Nc2ccc(F)cc2Cl)nc1-c1c[nH]c(C(=O)N[C@H](CO)c2cccc(Cl)c2)c1`, the % of inhibition in experiment [9] was 1%; in experiment [10], 3%.
In the case of `C=CC(=O)Nc1cc(-n2c(=O)ccc3cnc4ccc(-c5ccc(NS(C)(=O)=O)cc5)cc4c32)ccc1C`, the figures for the % of control in [11] (at 1 µM) and in experiment [11] (at 10 µM) were 100% and 73%, respectively.
For `CC[C@@H]1[C@H](F)C(=O)N[C@@H]1COc1nccc2cc(C(N)=O)c(OC)cc12` [ZIMLOVISERTIB], the % of inhibition in [12] is 5.5%; in experiment [13] (at 0.01 µM), -6%; in experiment [13] (at 0.04 µM), -6.7%; in experiment [13] (at 0.2 µM), -1.9%; in experiment [13] (at 1 µM), 8.1%; in [13] (at 5 µM), 18.5%. The % of inhibition in experiment [14] was 4.92%; in [15] it was 46.2%; in [16], 5.29%; on Activated CDC42 kinase 1, -1.67%.
For the compound `COc1cc(N(C)c2ccnc3ccc(C(F)(F)F)cc23)cc(OC)c1OC`, the % binding in [17] was 72%.
Take `CCC(=O)N1CC[C@H](Nc2ncnc3c2CN(c2cnc(OC)c(C(F)(F)F)c2)CC3)C1` [LENIOLISIB]: the IC50 (in general, the midpoint of a concentration-inhibition curve) in experiment [18] was more than 10 µM.
For the compound `N#Cc1cccc(-c2c[nH]c3ncnc(N4CCOCC4)c23)c1`, the % of control in experiment [19] came out at 79%; in experiment [22] it was 25%. For the same compound, the values for the % of inhibition in experiment [20] and in experiment [21] were -9% and 7%, respectively.
Turning to `C=CC(=O)Nc1ccc(C(=O)Nc2[nH]nc3c2CN(C(=O)N[C@H](CN(C)C)c2ccccc2)C3(C)C)cc1`, the results for the % of engagement in experiment [23] and in [24] were 24% and -19.8%, respectively.
Take `O[C@H]1CC[C@H](Nc2ncc3nc(Nc4c(F)cc(F)cc4F)n([C@H]4CCOC4)c3n2)CC1`: the values for the % of control in experiment [25], in experiment [26] and in [27] were 100%, 96% and 100%, respectively.
